Here are results for five compounds from patent US8450372B2, “Formulations of suberoylanilide hydroxamic acid and methods for producing same” (Merck Sharp & Dohme Corp., priority 2005, dated 2013).

Data set [1] can be described thus: Dissolution rate of about 100 mg SAHA API before encapsulation (USP Dissolution Apparatus II, 900 mL 2.0% Tween, 37±0.5° C., 100 rpm, HPLC). Type of data set: physicochemical. Conditions: for Average SAHA % Dissolved at Time, minutes 0: 0 minutes; for Average SAHA % Dissolved at Time, minutes 10: 10 minutes; for Average SAHA % Dissolved at Time, minutes 15: 15 minutes; for Average SAHA % Dissolved at Time, minutes 20: 20 minutes; for Average SAHA % Dissolved at Time, minutes 30: 30 minutes; for Average SAHA % Dissolved at Time, minutes 45: 45 minutes; for Average SAHA % Dissolved at Time, minutes 60: 60 minutes. The procedure:
Dissolution rates or profiles in vitro of “about 100 mg of the active ingredient of the pharmaceutical composition” is measured according to the steps and conditions in Example 15. In one embodiment, it is measured by using a USP Dissolution Apparatus II with a helical sinker (Quality Lab Accessories L.L.C., Manville, N.J.) in 900 mL of 2.0% Tween (TCI America, Portland, Oreg.) at a temperature of 37±0.5° C., and paddles rotated at 100 rpm.
The dissolution rate of 100 mg of SAHA API before encapsulation was evaluated using a USP Dissolution Apparatus II (VK 7000, Varian Inc., Cary, N.C.). About 100 mg of SAHA was delivered to vessels containing 900 mL of 2.0% Tween (TCI America, Portland, Oreg.) at a temperature of 37±0.5° C. The paddles were rotated at 100 rpm and samples were pulled at specified time intervals via an autosampler (VK 8000, Varian Inc., Cary, N.C.) equipped with 35 μm full flow filters (Varian Inc., Cary, N.C.).
Subsequently, samples were assayed for SAHA by High Performance Liquid Chromatography (Agilent 1100 series, Agilent Technologies Inc., Wilmington, Del.). The chromatographic analysis was conducted using a Phenomenex Luna C8 (2) (100×4.6 mm) 5 μm particle size column, a mobile phase of 1:1 methanol/0.1% trifluroacetic acid (Reagent Grade, Fisher), and a detection wavelength of 242 nm.

The nature of data set [2]: Solubility of SAHA raw material (physical and chemical properties of raw materials). Type of data set: physicochemical. The conditions noted are these: water. From the text: Table 10 summarizes the physical properties of the raw materials in the capsule.
Data set [3] in a line: Phase I study: safety and tolerability of oral vorinostat 400 mg q.d. Type of data set: in vivo, human. Conditions: short-term administration, patients with advanced cancer. The procedure:
(§1) This Phase I study conducted in advanced stage cancer patients assessed safety and tolerability of oral vorinostat administered 400 mg q.d., single- and multiple-dose serum pharmacokinetics (PK) of vorinostat, and the effect of a standard high-fat meal on single-dose vorinostat PK. Patients received a single-dose of 400 mg vorinostat on Day 1 (fasted) and Day 5 (after a standard high-fat meal) with 48 hours of postdose PK sampling on both days. Patients then received 400 mg vorinostat once a day on Days 7 through 28 (22 days of dosing). On Day 28, vorinostat was administered after a standard high-fat meal with PK sampling for 24 hrs postdose. Of 23 patients enrolled, 23 were evaluable for Day 1 PK, 20 for Day 5 PK, and 14 for Day 28 PK. The apparent t1/2 of vorinostat was short.

Data set [4] is described as follows: Phase I study: single- and multiple-dose serum pharmacokinetics of oral vorinostat 400 mg, fasted and after high-fat meal. Type of data set: in vivo, human. The conditions noted are these: for fe (fraction of dose excreted unchanged in urine): arithmetic mean; for Tmax: median; for AUC(0-t): read-out: AUC0-24 hr. Here is the method:
as §1
Table 22: PK Parameters of Vorinostat Following Single and Multiple Doses of Vorinostat 400 mg Daily

Where [5] appears, read: 400 mg single oral dose, high-fat meal vs fasted.
Where [6] appears, read: single dose fed/single dose fasted, 400 mg.

Like-named read-outs stand apart in the source and are kept apart here. Marks after values point to notes of the source that are not given here.

In the case of `O=C(CCCCCCC(=O)Nc1ccccc1)NO` [1007D, suberoylanilide hydroxamic acid], in data set [1], the “Average SAHA % Dissolved at Time, minutes 0” value is given as 0.0%; the “Average SAHA % Dissolved at Time, minutes 10” value came out at 37.8%; the “Average SAHA % Dissolved at Time, minutes 15” value was 46.1%; the “Average SAHA % Dissolved at Time, minutes 20” value was 52.1%. For the same compound, in data set [1], the “Average SAHA % Dissolved at Time, minutes 30” value is 61.9%; the “Average SAHA % Dissolved at Time, minutes 45” value is recorded as 71.8%; the “Average SAHA % Dissolved at Time, minutes 60” value amounted to 79.3%.
As for `O=C(CCCCCCC(=O)Nc1ccccc1)NO` [1376-C-RO-02, suberoylanilide hydroxamic acid], in data set [1], the “Average SAHA % Dissolved at Time, minutes 0” value came out at 0.0%; the “Average SAHA % Dissolved at Time, minutes 10” value is on record as 31.1%; the “Average SAHA % Dissolved at Time, minutes 15” value was found to be 39.7%; the “Average SAHA % Dissolved at Time, minutes 20” value stood at 47.1%. In data set [1], the “Average SAHA % Dissolved at Time, minutes 30” value was 58.3%; the “Average SAHA % Dissolved at Time, minutes 45” value is on record as 70.1%; the “Average SAHA % Dissolved at Time, minutes 60” value is 78.3%.
Take `O=C(CCCCCCC(=O)Nc1ccccc1)NO` [1136-1136-00-001, suberoylanilide hydroxamic acid]: in data set [1], the “Average SAHA % Dissolved at Time, minutes 0” value was found to be 0.0%; the “Average SAHA % Dissolved at Time, minutes 10” value was 38.2%; the “Average SAHA % Dissolved at Time, minutes 15” value amounted to 48.9%; the “Average SAHA % Dissolved at Time, minutes 20” value came out at 57.3%. Also, in data set [1], the “Average SAHA % Dissolved at Time, minutes 30” value worked out at 69.3%; the “Average SAHA % Dissolved at Time, minutes 45” value is reported as 80.6%; the “Average SAHA % Dissolved at Time, minutes 60” value was 87.7%.
Regarding `O=C(CCCCCCC(=O)Nc1ccccc1)NO` [1008D, suberoylanilide hydroxamic acid], in data set [1], the “Average SAHA % Dissolved at Time, minutes 0” value is 0.0%; the “Average SAHA % Dissolved at Time, minutes 10” value was determined as 26.8%; the “Average SAHA % Dissolved at Time, minutes 15” value came to 34.8%; the “Average SAHA % Dissolved at Time, minutes 20” value is reported as 41.5%. Further, in data set [1], the “Average SAHA % Dissolved at Time, minutes 30” value is 51.3%; the “Average SAHA % Dissolved at Time, minutes 45” value was determined as 61.8%; the “Average SAHA % Dissolved at Time, minutes 60” value is given as 69.8%.
Usually solubility stands for the concentration that dissolves in the medium under given conditions. High values mean much dissolved substance, low ones little dissolved substance. A word on the Cmax: it is the highest concentration seen after dosing. A word on the Tmax: it is the time from dosing to the highest level. The half-life is the time in which the quantity being followed falls by half. A low value points to rapid decline. As a reminder, the AUC(0-inf) is the area under the concentration-time curve extrapolated to infinity. Low readings indicate less exposure, high ones more exposure. In data set [2], `O=C(CCCCCCC(=O)Nc1ccccc1)NO` [vorinostat, N-hydroxy-N′-phenyloctanediamide] showed a solubility of less than 100 µg/mL. The tolerability result in data set [3] is on record as “generally well tolerated”. Moreover, the “Accumulation ratio: AUC0-24 hr multiple dose fed/AUC0-24 hr single dose fed (GMR)” value in data set [4] (400 mg daily) is recorded as 1.21. Moreover, the “Linearity ratio: AUC0-24 hr multiple dose fed/AUC0-∞ single dose fed (GMR)” value in data set [4] (400 mg daily) is 1.23. For the same compound, the “fe (fraction of dose excreted unchanged in urine)” value was found to be 0.0037 in data set [4] (400 mg oral, multiple doses (once daily for 22 days), fed, n = 12); 0.0021 in data set [4] (400 mg oral, single dose, fasted, n = 22); 0.0030 in data set [4] (400 mg oral, single dose, fed, n = 21). In data set [4] (400 mg oral, multiple doses (once daily for 22 days), fed, harmonic mean), this compound gave a t1/2 of 1.34 h. In addition, the peak concentration (Cmax) was 1130 nM in data set [4] (400 mg oral, multiple doses (once daily for 22 days), fed, serum, geometric mean); 1120 nM in data set [4] (human, serum, po, 400 mg, 400 mg oral, single dose, fasted, geometric mean); 1020 nM in data set [4] (human, serum, po, 400 mg, 400 mg oral, single dose, fed, geometric mean). For the same compound, the Tmax in data set [4] (400 mg oral, single dose, fasted) turned out to be 1.50 h; in data set [4] (human, serum, po, 400 mg, 400 mg oral, multiple doses (once daily for 22 days), fed, read-out: Tmax), 4.21 h; in data set [4] (human, serum, po, 400 mg, 400 mg oral, single dose, fed, read-out: Tmax), 4 h. The “AUC0-∞” value in data set [4] (400 mg oral, single dose, fed (high-fat meal), serum, geometric mean) stood at 5.33 µM·h. Also, the AUC0-24 hr in data set [4] (400 mg oral, single dose, fed, serum, geometric mean) is 5.33 µM·h. Moreover, the “extent of absorption, effect of high-fat meal” value in data set [4] (setting [5]) is on record as “small increase”. Moreover, the “rate of absorption, effect of high-fat meal” value in data set [4] (setting [5]) is “modest decrease”. For the same compound, the “apparent t1/2” value in data set [4] (advanced cancer patients, 400 mg oral, serum) was “short”. In data set [4] (fed state, 400 mg oral), the “Tmax, effect of high-fat meal” value was “delayed”. Moreover, the “lag time before detectable levels in serum” value in data set [4] (fed state, most subjects, 400 mg oral) was “at least 15 minutes”. Besides, the AUC(0-t) in data set [4] (human, serum, po, 400 mg, 400 mg oral, multiple doses (once daily for 22 days), fed, serum, geometric mean) came out at 6.46 µM·h; in data set [4] (human, serum, po, 400 mg, 400 mg oral, single dose, fasted, serum, geometric mean), 3.82 µM·h. Further, the half-life in data set [4] (human, serum, po, 400 mg, 400 mg oral, single dose, fasted, harmonic mean) was 1.74 h; in data set [4] (human, serum, po, 400 mg, 400 mg oral, single dose, fed, harmonic mean) it was 1.44 h. This compound also registered an AUC(0-inf) in data set [4] (human, 400 mg oral, single dose, fasted, serum, geometric mean) of 3.87 µM·h. In data set [4] (multiple-dose administration, 400 mg once a day, serum), the Trough concentrations entry is on record as “generally below the limit of quantification”. In data set [4] (setting [6]), the “AUC0-∞ GMR (geometric mean ratio)” value was 1.38^§. Further, the “Cmax GMR (geometric mean ratio)” value in data set [4] (setting [6]) is reported as 0.91^§.
